Measured values taken from patent publication US12344600B2, “c-Myc mRNA translation modulators and uses thereof in the treatment of cancer” (Anima Biotech Inc., priority 2022, dated 2025).

System: c-Myc
Test: c-Myc immunofluorescence assay
Assay type: cell-based, human
Conditions: A549 cells, 24 hours, anti-c-Myc immunofluorescence
Description: A549 human non-small cell lung carcinoma cells were treated for 24 hours with increasing compound concentration, cells were fixed and stained with a nuclei stain (DAPI) and anti-c-Myc fluorescent antibody. The c-Myc signal was quantified by image analysis, and data was exported and analyzed using TIBCO Spotfire® (TIBCO Corporation). Dose response curves were generated and fitted with logaristic regression to calculate potency (EC50 values). Potency values are presented in Table 2 for all compounds and are shown for selected compounds (FIG. 3).
A549 cells were grown in 384-wells plates (Perkin Elmer, Cat. 6057300) for 48 hours, treated with compounds and then fixed for 20 min in 4% paraformaldehyde. After that permeabilization was done using 0.1% Triton X-100 in PBS for 20 min. Primary anti-c-Myc antibody (Abcam, ab32072) staining was performed for 90 min at room temperature. Cells then were washed twice with PBS and incubated with secondary antibody (Abcam, ab150075) for 90 min at room temperature. Nuclei were stained with DAPI for 10 min and washed twice with PBS.
Cell images were taken with Operetta (Perkin Elmer, USA), a wide-field fluorescence microscope at 20× magnification. After acquisition, the images were transferred to Columbus software (Perkin-Elmer) for image analysis. In Columbus, cells were identified by their nucleus, using the “Find Nuceli” module and cytoplasm was detected based on the secondary antibody channel. Subsequently, the fluorescent signal was enumerated in the identified cell region. Then data was exported to a data analysis and visualization software, Tibco Spotfire, USA.

SMILES | Myc Efficacy (−LogEC50)
COc1ccc(-c2noc(N3CCC(C(=O)NCC4CCN(Cc5ccc(C)cn5)C4)CC3)n2)cc1 (stereo not shown) [Compound 223, 1-(3-(4-methoxyphenyl)-1,2,4-oxadiazol-5-yl)-N-((1-((5-methylpyridin-2-yl)methyl)pyrrolidin-3-yl)methyl)piperidine-4-carboxamide] | ++ (++ ≥5 and <6)
COc1ccc(-c2noc(N3CCC(C(=O)NC(CO)c4cccs4)CC3)n2)cc1 (stereo not shown) [Compound 262, N-(2-hydroxy-1-(thiophen-2-yl)ethyl)-1-(3-(4-methoxyphenyl)-1,2,4-oxadiazol-5-yl)piperidine-4-carboxamide] | + (+ >3 and <5)
Cc1ccc(CN2CC[C@H](CNC(=O)C3CCN(c4nc(-c5ccc(Cl)cc5)no4)CC3)C2)cc1 [Compound 168, (R)-1-(3-(4-chlorophenyl)-1,2,4-oxadiazol-5-yl)-N-((1-(4-methylbenzyl)pyrrolidin-3-yl)methyl)piperidine-4-carboxamide] | ++ (++ ≥5 and <6)
O=C(C1CCN(c2nc(-c3cccc(Cl)c3)no2)CC1)N1CCOCC1 [Compound 165, (1-(3-(3-chlorophenyl)-1,2,4-oxadiazol-5-yl)piperidin-4-yl)(morpholino)methanone] | + (+ >3 and <5)
COc1ccc(-c2noc(N3CCC(Oc4ccccc4)CC3)n2)cc1 [Compound 135, 3-(4-methoxyphenyl)-5-(4-phenoxypiperidin-1-yl)-1,2,4-oxadiazole] | − (− ≤3)
COc1ccc(-c2noc(N3CCC(C(=O)NCC4CCN(Cc5ccc(F)cc5)C4)CC3)n2)cc1 (stereo not shown) [Compound 331, N-((1-(4-fluorobenzyl)pyrrolidin-3-yl)methyl)-1-(3-(4-methoxyphenyl)-1,2,4-oxadiazol-5-yl)piperidine-4-carboxamide] | ++ (++ ≥5 and <6)
CN1CCC[C@@H](CN2CC[C@@H](CNC(=O)C3CCN(c4nc(-c5ccc(Cl)cc5)no4)CC3)C2)C1 [Compound 474, 1-(3-(4-chlorophenyl)-1,2,4-oxadiazol-5-yl)-N-(((S)-1-(((R)-1-methylpiperidin-3-yl)methyl)pyrrolidin-3-yl)methyl)piperidine-4-carboxamide] | ++ (++ ≥5 and <6)
COc1ccc(-c2noc(N3CCC(C(=O)N[C@H]4[C@@H]5CN(C)C[C@@H]54)CC3)n2)cc1 [Compound 295, 1-(3-(4-methoxyphenyl)-1,2,4-oxadiazol-5-yl)-N-((1R,5S,6s)-3-methyl-3-azabicyclo[3.1.0]hexan-6-yl)piperidine-4-carboxamide] | + (+ >3 and <5)
COc1ccc(-c2noc(N3CCC(C(=O)NCC4CCN(Cc5ccc(F)cn5)C4)CC3)n2)cc1 (stereo not shown) [Compound 335, N-((1-((5-fluoropyridin-2-yl)methyl)pyrrolidin-3-yl)methyl)-1-(3-(4-methoxyphenyl)-1,2,4-oxadiazol-5-yl)piperidine-4-carboxamide] | ++ (++ ≥5 and <6)
COc1ccc(-c2noc(N3CCC(C(=O)NC4=NCCS4)CC3)n2)cc1 [Compound 261, N-(4,5-dihydrothiazol-2-yl)-1-(3-(4-methoxyphenyl)-1,2,4-oxadiazol-5-yl)piperidine-4-carboxamide] | + (+ >3 and <5)
COc1ccc(-c2noc(N3CCC(C(=O)NCC4CCN(C5COC5)C4)CC3)n2)cc1 (stereo not shown) [Compound 401, 1-(3-(4-methoxyphenyl)-1,2,4-oxadiazol-5-yl)-N-((1-(oxetan-3-yl)pyrrolidin-3-yl)methyl)piperidine-4-carboxamide] | + (+ >3 and <5)
COc1ccc(-c2noc(N3CCC(C(=O)NC[C@H](C)OC)CC3)n2)cc1 [Compound 276, (S)-1-(3-(4-methoxyphenyl)-1,2,4-oxadiazol-5-yl)-N-(2-methoxypropyl)piperidine-4-carboxamide] | + (+ >3 and <5)
Cc1ccc(CN2CC(CNC(=O)C3CCN(c4nc(-c5ccc(C#N)cc5)no4)CC3)CC2=O)cc1 (stereo not shown) [Compound 267, 1-(3-(4-cyanophenyl)-1,2,4-oxadiazol-5-yl)-N-((1-(4-methylbenzyl)-5-oxopyrrolidin-3-yl)methyl)piperidine-4-carboxamide] | ++ (++ ≥5 and <6)
O=C(C1CCN(c2nc(-c3ccccc3)no2)CC1)N1CCN(Cc2ccccc2)CC1 [Compound 131, (4-benzylpiperazin-1-yl)(1-(3-phenyl-1,2,4-oxadiazol-5-yl)piperidin-4-yl)methanone] | + (+ >3 and <5)
O=C(NCc1cccnc1)C1CCN(c2nc(-c3ccncc3)no2)CC1 [Compound 200, N-(pyridin-3-ylmethyl)-1-(3-(pyridin-4-yl)-1,2,4-oxadiazol-5-yl)piperidine-4-carboxamide] | + (+ >3 and <5)
COc1ccc(-c2noc(N3CCC(C(=O)NC4(c5nc(C)cs5)CCC4)CC3)n2)cc1 [Compound 298, 1-(3-(4-methoxyphenyl)-1,2,4-oxadiazol-5-yl)-N-(1-(4-methylthiazol-2-yl)cyclobutyl)piperidine-4-carboxamide] | + (+ >3 and <5)
COc1ccc(-c2noc(CCC(=O)NC[C@@H]3CCN(Cc4ccc(C)cc4)C3)n2)cc1 [Compound 150, (S)-3-(3-(4-methoxyphenyl)-1,2,4-oxadiazol-5-yl)-N-((1-(4-methylbenzyl)pyrrolidin-3-yl)methyl)propanamide] | ++ (++ ≥5 and <6)
Cc1ccc(CN2CCC(CNC(=O)C3CCN(c4nc(-c5cccc(C#N)c5)no4)CC3)C2)cc1 (stereo not shown) [Compound 198, 1-(3-(3-cyanophenyl)-1,2,4-oxadiazol-5-yl)-N-((1-(4-methylbenzyl)pyrrolidin-3-yl)methyl)piperidine-4-carboxamide] | ++ (++ ≥5 and <6)
COc1ccc(-c2noc(N3CCC(C(=O)NCC4CCN(Cc5ncccc5C)C4)CC3)n2)cc1 (stereo not shown) [Compound 350, 1-(3-(4-methoxyphenyl)-1,2,4-oxadiazol-5-yl)-N-((1-((3-methylpyridin-2-yl)methyl)pyrrolidin-3-yl)methyl)piperidine-4-carboxamide] | ++ (++ ≥5 and <6)
COc1ccc(-c2noc(C3CCC(C(=O)NCC4CCN(Cc5ccccc5)C4)CC3)n2)cc1 (stereo not shown) [Compound 174, (1r,4r)-N-((1-benzylpyrrolidin-3-yl)methyl)-4-(3-(4-methoxyphenyl)-1,2,4-oxadiazol-5-yl)cyclohexane-1-carboxamide] | ++ (++ ≥5 and <6)
COc1ccc(-c2noc(N3CCC(C(=O)NCCCN(C)c4ccccc4)CC3)n2)cc1 [Compound 130, 1-(3-(4-methoxyphenyl)-1,2,4-oxadiazol-5-yl)-N-(3-(methyl(phenyl)amino)propyl)piperidine-4-carboxamide] | + (+ >3 and <5)
O=C(C1CCN(c2nc(-c3ccccc3Cl)no2)CC1)N1CCOCC1 [Compound 164, (1-(3-(2-chlorophenyl)-1,2,4-oxadiazol-5-yl)piperidin-4-yl)(morpholino)methanone] | − (− ≤3)
COc1ccc(-c2noc(N3CCC(C(=O)NCC4CCN(CC5CC5(C)C)C4)CC3)n2)cc1 (stereo not shown) [Compound 337, N-((1-((2,2-dimethylcyclopropyl)methyl)pyrrolidin-3-yl)methyl)-1-(3-(4-methoxyphenyl)-1,2,4-oxadiazol-5-yl)piperidine-4-carboxamide] | ++ (++ ≥5 and <6)
COc1ccc(-c2noc(N3CCC(C(=O)NCC4CCN(Cc5ccc(C)cc5)C4)CC3)n2)cn1 (stereo not shown) [Compound 159, 1-(3-(6-methoxypyridin-3-yl)-1,2,4-oxadiazol-5-yl)-N-((1-(4-methylbenzyl)pyrrolidin-3-yl)methyl)piperidine-4-carboxamide] | + (+ >3 and <5)
COc1ccc(-c2noc(N3CCC(C(=O)NCc4cccc(OC(C)C)c4)CC3)n2)cc1 [Compound 300, N-(3-isopropoxybenzyl)-1-(3-(4-methoxyphenyl)-1,2,4-oxadiazol-5-yl)piperidine-4-carboxamide] | ++ (++ ≥5 and <6)
COc1ccc(CNC(=O)C2CCN(c3nc(-c4ccc(C(C)C)cc4)no3)CC2)cc1 [Compound 133, 1-(3-(4-isopropylphenyl)-1,2,4-oxadiazol-5-yl)-N-(4-methoxybenzyl)piperidine-4-carboxamide] | + (+ >3 and <5)
COc1ccc(-c2noc(N3CCC(C(=O)NCCN4CCCC4(C)C)CC3)n2)cc1 [Compound 269, N-(2-(2,2-dimethylpyrrolidin-1-yl)ethyl)-1-(3-(4-methoxyphenyl)-1,2,4-oxadiazol-5-yl)piperidine-4-carboxamide] | + (+ >3 and <5)
COc1ccc(-c2noc(N3CCC(C(=O)NC[C@H]4CCN(C)C4)CC3)n2)cc1 [Compound 253, (R)-1-(3-(4-methoxyphenyl)-1,2,4-oxadiazol-5-yl)-N-((1-methylpyrrolidin-3-yl)methyl)piperidine-4-carboxamide] | + (+ >3 and <5)
